# In patent publication US6358885B1, “Substituted phenylheterocyclic herbicides” (Mississippi State University, priority 1992, dated 2002):
# Tests used:
# Test in all cases: Test B preemergence/postemergence greenhouse plant response rating 0 to 10
# barnyardgrass = type: in vivo, Echinochloa crus-galli; conditions: for Plant response rating (0 to 10 scale), Barnyardgrass: Rate 100 g/ha; for Plant response rating, Barnyardgrass: Rate 400 g/ha, 0 to 10 scale
# Source text: (§1) Seeds of barley (Hordeum vulgare), barnyardgrass (Echinochloa crus-galli), bedstraw (Galium aparine), blackgrass (Alopecurus myosuroides), […] (Bromus secalinus), chickweed (Stellaria media), cocklebur (Xanthium pensylvanicum), corn (Zea mays), cotton (Gossypium hirsutum), crabgrass (Digitaria spp.), giant foxtail (Setaria faberii), lambsquarters (Chenopodium album), morningglory (Ipomoea hederacea), rape (Brassica napus), rice (Oryza sativa), sorghum (Sorghum bicolor), soybean (Glycine max), sugar beet (Beta vulgaris), velvetleaf (Abutilon theophrasti), wheat (Triticum aestivum), wild buckwheat (Polygonum convolvulus), and wild oat (Avena fatua) and purple nutsedge. (Cyperus rotundus) tubers were planted and treated preemergence with test chemicals dissolved in a non-phytotoxic solvent. At the same time, these crop and weed species were also treated with postemergence applications of test chemicals. Plants ranged in height from two to eighteen cm (one to four leaf stage) for postemergence treatments. Treated plants and controls were maintained in a greenhouse for twelve to sixteen days, after which all species were compared to controls and visually evaluated. […] A dash (-) response means no test result.
# rice = type: in vivo, Oryza sativa; conditions: for Plant response rating (0 to 10 scale), Rice: Rate 100 g/ha; for Plant response rating, Rice: Rate 400 g/ha, 0 to 10 scale
# Source text: as §1
# soybean = type: in vivo, Glycine max; conditions: for Plant response rating (0 to 10 scale), Soybean: Rate 100 g/ha; for Plant response rating, Soybean: Rate 400 g/ha, 0 to 10 scale
# Source text: as §1
# sugar beet = type: in vivo, Beta vulgaris; conditions: for Plant response rating (0 to 10 scale), Sugar beet: Rate 100 g/ha; for Plant response rating, Sugar beet: Rate 400 g/ha, 0 to 10 scale
# Source text: as §1
# sorghum = type: in vivo, Sorghum bicolor; conditions: for Plant response rating (0 to 10 scale), Sorghum: Rate 100 g/ha; for Plant response rating, Sorghum: Rate 400 g/ha, 0 to 10 scale
# Source text: as §1
# wheat = type: in vivo, Triticum aestivum; conditions: for Plant response rating (0 to 10 scale), Wheat: Rate 100 g/ha; for Plant response rating, Wheat: Rate 400 g/ha, 0 to 10 scale
# Source text: as §1
# wild oat = type: in vivo, Avena fatua; conditions: for Plant response rating (0 to 10 scale), Wild oat: Rate 100 g/ha; for Plant response rating, Wild oat: Rate 400 g/ha, 0 to 10 scale
# Source text: as §1
# crabgrass = type: in vivo, Digitaria spp.; conditions: for Plant response rating (0 to 10 scale), Crabgrass: Rate 100 g/ha; for Plant response rating, Crabgrass: Rate 400 g/ha, 0 to 10 scale
# Source text: as §1
# giant foxtail = type: in vivo, Setaria faberii; conditions: for Plant response rating (0 to 10 scale), Giant foxtail: Rate 100 g/ha; for Plant response rating, Giant foxtail: Rate 400 g/ha, 0 to 10 scale
# Source text: as §1
# cheatgrass = type: in vivo, Bromus secalinus; conditions: for Plant response rating (0 to 10 scale), Cheatgrass: Rate 100 g/ha; for Plant response rating, Cheatgrass: Rate 400 g/ha, 0 to 10 scale
# Source text: as §1
# cocklebur = type: in vivo, Xanthium pensylvanicum; conditions: for Plant response rating (0 to 10 scale), Cocklebur: Rate 100 g/ha; for Plant response rating, Cocklebur: Rate 400 g/ha, 0 to 10 scale
# Source text: as §1
# barley = type: in vivo, Hordeum vulgare; conditions: for Plant response rating (0 to 10 scale), Barley: Rate 100 g/ha; for Plant response rating, Barley: Rate 400 g/ha, 0 to 10 scale
# Source text: as §1
# corn = type: in vivo, Zea mays; conditions: for Plant response rating (0 to 10 scale), Corn: Rate 100 g/ha; for Plant response rating, Corn: Rate 400 g/ha, 0 to 10 scale
# Source text: as §1
# velvetleaf = type: in vivo, Abutilon theophrasti; conditions: for Plant response rating (0 to 10 scale), Velvetleaf: Rate 100 g/ha; for Plant response rating, Velvetleaf: Rate 400 g/ha, 0 to 10 scale
# Source text: as §1
# wild buckwheat = type: in vivo, Polygonum convolvulus; conditions: for Plant response rating (0 to 10 scale), Wild buckwheat: Rate 100 g/ha; for Plant response rating, Wild buckwheat: Rate 400 g/ha, 0 to 10 scale
# Source text: as §1
# purple nutsedge = type: in vivo, Cyperus rotundus; conditions: for Plant response rating (0 to 10 scale), Nutsedge: Rate 100 g/ha; for Plant response rating, Nutsedge: Rate 400 g/ha, 0 to 10 scale
# Source text: as §1
# lambsquarters = type: in vivo, Chenopodium album; conditions: for Plant response rating (0 to 10 scale), Lambsquarter: Rate 100 g/ha; for Plant response rating, Lambsquarter: Rate 400 g/ha, 0 to 10 scale
# Source text: as §1
# chickweed = type: in vivo, Stellaria media; conditions: for Plant response rating (0 to 10 scale), Chickweed: Rate 100 g/ha; for Plant response rating, Chickweed: Rate 400 g/ha, 0 to 10 scale
# Source text: as §1
# blackgrass = type: in vivo, Alopecurus myosuroides; conditions: for Plant response rating (0 to 10 scale), Blackgrass: Rate 100 g/ha; for Plant response rating, Blackgrass: Rate 400 g/ha, 0 to 10 scale
# Source text: as §1
# morningglory = type: in vivo, Ipomoea hederacea; conditions: for Plant response rating (0 to 10 scale), Morningglory: Rate 100 g/ha; for Plant response rating, Morningglory: Rate 400 g/ha, 0 to 10 scale
# Source text: as §1
# cotton = type: in vivo, Gossypium hirsutum; conditions: for Plant response rating (0 to 10 scale), Cotton: Rate 100 g/ha; for Plant response rating, Cotton: Rate 400 g/ha, 0 to 10 scale
# Source text: as §1
# bedstraw = type: in vivo, Galium aparine; conditions: for Plant response rating (0 to 10 scale), Bedstraw: Rate 100 g/ha; for Plant response rating, Bedstraw: Rate 400 g/ha, 0 to 10 scale
# Source text: as §1
# rape = type: in vivo, Brassica napus; conditions: for Plant response rating (0 to 10 scale), Rape: Rate 100 g/ha; for Plant response rating, Rape: Rate 400 g/ha, 0 to 10 scale
# Source text: as §1
smiles,measurement,setting,value
Fc1ccc(-c2nc3n(c2Br)CCCC3)c(F)c1 [Compound 7],"Plant response rating (0 to 10 scale), Barnyardgrass",barnyardgrass; POSTEMERGENCE,4
same,"Plant response rating, Barnyardgrass",barnyardgrass; POSTEMERGENCE,6
same,"Plant response rating (0 to 10 scale), Barnyardgrass",barnyardgrass; PREEMERGENCE,1
same,"Plant response rating, Barnyardgrass",barnyardgrass; PREEMERGENCE,2
same,"Plant response rating (0 to 10 scale), Rice",rice; POSTEMERGENCE,5
same,"Plant response rating, Rice",rice; POSTEMERGENCE,5
same,"Plant response rating (0 to 10 scale), Rice",rice; PREEMERGENCE,0
same,"Plant response rating, Rice",rice; PREEMERGENCE,0
same,"Plant response rating (0 to 10 scale), Soybean",soybean; POSTEMERGENCE,8
same,"Plant response rating, Soybean",soybean; POSTEMERGENCE,8
same,"Plant response rating (0 to 10 scale), Soybean",soybean; PREEMERGENCE,0
same,"Plant response rating, Soybean",soybean; PREEMERGENCE,0
same,"Plant response rating (0 to 10 scale), Sugar beet",sugar beet; POSTEMERGENCE,9
same,"Plant response rating, Sugar beet",sugar beet; POSTEMERGENCE,10
same,"Plant response rating (0 to 10 scale), Sugar beet",sugar beet; PREEMERGENCE,0
same,"Plant response rating, Sugar beet",sugar beet; PREEMERGENCE,0
same,"Plant response rating (0 to 10 scale), Sorghum",sorghum; POSTEMERGENCE,5
same,"Plant response rating, Sorghum",sorghum; POSTEMERGENCE,6
same,"Plant response rating (0 to 10 scale), Sorghum",sorghum; PREEMERGENCE,0
same,"Plant response rating, Sorghum",sorghum; PREEMERGENCE,0
same,"Plant response rating (0 to 10 scale), Wheat",wheat; POSTEMERGENCE,3
same,"Plant response rating, Wheat",wheat; POSTEMERGENCE,5
same,"Plant response rating (0 to 10 scale), Wheat",wheat; PREEMERGENCE,0
same,"Plant response rating, Wheat",wheat; PREEMERGENCE,0
same,"Plant response rating (0 to 10 scale), Wild oat",wild oat; POSTEMERGENCE,2
same,"Plant response rating, Wild oat",wild oat; POSTEMERGENCE,3
same,"Plant response rating (0 to 10 scale), Wild oat",wild oat; PREEMERGENCE,0
same,"Plant response rating, Wild oat",wild oat; PREEMERGENCE,0
same,"Plant response rating (0 to 10 scale), Crabgrass",crabgrass; POSTEMERGENCE,4
same,"Plant response rating, Crabgrass",crabgrass; POSTEMERGENCE,4
same,"Plant response rating (0 to 10 scale), Crabgrass",crabgrass; PREEMERGENCE,2
same,"Plant response rating, Crabgrass",crabgrass; PREEMERGENCE,6
same,"Plant response rating (0 to 10 scale), Giant foxtail",giant foxtail; POSTEMERGENCE,5
same,"Plant response rating, Giant foxtail",giant foxtail; POSTEMERGENCE,5
same,"Plant response rating (0 to 10 scale), Giant foxtail",giant foxtail; PREEMERGENCE,3
same,"Plant response rating, Giant foxtail",giant foxtail; PREEMERGENCE,4
same,"Plant response rating (0 to 10 scale), Cheatgrass",cheatgrass; POSTEMERGENCE,3
same,"Plant response rating, Cheatgrass",cheatgrass; POSTEMERGENCE,4
same,"Plant response rating (0 to 10 scale), Cheatgrass",cheatgrass; PREEMERGENCE,0
same,"Plant response rating, Cheatgrass",cheatgrass; PREEMERGENCE,0
same,"Plant response rating (0 to 10 scale), Cocklebur",cocklebur; POSTEMERGENCE,7
same,"Plant response rating, Cocklebur",cocklebur; POSTEMERGENCE,8
same,"Plant response rating (0 to 10 scale), Cocklebur",cocklebur; PREEMERGENCE,0
same,"Plant response rating, Cocklebur",cocklebur; PREEMERGENCE,0
same,"Plant response rating (0 to 10 scale), Barley",barley; POSTEMERGENCE,2
same,"Plant response rating, Barley",barley; POSTEMERGENCE,3
same,"Plant response rating (0 to 10 scale), Barley",barley; PREEMERGENCE,0
same,"Plant response rating, Barley",barley; PREEMERGENCE,0
same,"Plant response rating (0 to 10 scale), Corn",corn; POSTEMERGENCE,3
same,"Plant response rating, Corn",corn; POSTEMERGENCE,4
same,"Plant response rating (0 to 10 scale), Corn",corn; PREEMERGENCE,0
same,"Plant response rating, Corn",corn; PREEMERGENCE,0
same,"Plant response rating (0 to 10 scale), Velvetleaf",velvetleaf; POSTEMERGENCE,7
same,"Plant response rating, Velvetleaf",velvetleaf; POSTEMERGENCE,9
same,"Plant response rating (0 to 10 scale), Velvetleaf",velvetleaf; PREEMERGENCE,1
same,"Plant response rating, Velvetleaf",velvetleaf; PREEMERGENCE,5
same,"Plant response rating (0 to 10 scale), Wild buckwheat",wild buckwheat; POSTEMERGENCE,9
same,"Plant response rating, Wild buckwheat",wild buckwheat; POSTEMERGENCE,10
same,"Plant response rating (0 to 10 scale), Wild buckwheat",wild buckwheat; PREEMERGENCE,0
same,"Plant response rating, Wild buckwheat",wild buckwheat; PREEMERGENCE,3
same,"Plant response rating (0 to 10 scale), Nutsedge",purple nutsedge; POSTEMERGENCE,1
same,"Plant response rating, Nutsedge",purple nutsedge; POSTEMERGENCE,2
same,"Plant response rating (0 to 10 scale), Nutsedge",purple nutsedge; PREEMERGENCE,0
same,"Plant response rating, Nutsedge",purple nutsedge; PREEMERGENCE,2
same,"Plant response rating (0 to 10 scale), Lambsquarter",lambsquarters; POSTEMERGENCE,8
same,"Plant response rating, Lambsquarter",lambsquarters; POSTEMERGENCE,9
same,"Plant response rating (0 to 10 scale), Lambsquarter",lambsquarters; PREEMERGENCE,0
same,"Plant response rating, Lambsquarter",lambsquarters; PREEMERGENCE,6
same,"Plant response rating (0 to 10 scale), Chickweed",chickweed; POSTEMERGENCE,3
same,"Plant response rating, Chickweed",chickweed; POSTEMERGENCE,3
same,"Plant response rating (0 to 10 scale), Chickweed",chickweed; PREEMERGENCE,0
same,"Plant response rating, Chickweed",chickweed; PREEMERGENCE,3
same,"Plant response rating (0 to 10 scale), Blackgrass",blackgrass; POSTEMERGENCE,3
same,"Plant response rating, Blackgrass",blackgrass; POSTEMERGENCE,4
same,"Plant response rating (0 to 10 scale), Blackgrass",blackgrass; PREEMERGENCE,0
same,"Plant response rating, Blackgrass",blackgrass; PREEMERGENCE,2
same,"Plant response rating (0 to 10 scale), Morningglory",morningglory; POSTEMERGENCE,8
same,"Plant response rating, Morningglory",morningglory; POSTEMERGENCE,9
same,"Plant response rating (0 to 10 scale), Morningglory",morningglory; PREEMERGENCE,0
same,"Plant response rating, Morningglory",morningglory; PREEMERGENCE,0
same,"Plant response rating (0 to 10 scale), Cotton",cotton; POSTEMERGENCE,9
same,"Plant response rating, Cotton",cotton; POSTEMERGENCE,10
same,"Plant response rating (0 to 10 scale), Cotton",cotton; PREEMERGENCE,0
same,"Plant response rating, Cotton",cotton; PREEMERGENCE,0
same,"Plant response rating (0 to 10 scale), Bedstraw",bedstraw; POSTEMERGENCE,4
same,"Plant response rating, Bedstraw",bedstraw; POSTEMERGENCE,6
same,"Plant response rating (0 to 10 scale), Bedstraw",bedstraw; PREEMERGENCE,0
same,"Plant response rating, Bedstraw",bedstraw; PREEMERGENCE,2
same,"Plant response rating (0 to 10 scale), Rape",rape; POSTEMERGENCE,5
same,"Plant response rating, Rape",rape; POSTEMERGENCE,7
same,"Plant response rating (0 to 10 scale), Rape",rape; PREEMERGENCE,0
same,"Plant response rating, Rape",rape; PREEMERGENCE,0
